Assay results as given in ChEMBL document CHEMBL6134909 (Eur J Med Chem, 2025).

Assays:
[1] = Metabolic stability in human liver microsomes assessed as compound remaining at 2 to 10 uM measured after 60 mins in presence of NADPH by LC-MS/MS analysis; type: ADME, Microsome; details: dose 2-10 µM, read-out: Stability
[2] = Metabolic stability in BALB/c mouse liver microsomes assessed as compound remaining at 2 to 10 uM measured after 60 mins in absence of NADPH by LC-MS/MS analysis; type: ADME, Microsome; details: dose 2-10 µM, read-out: Stability
Influenza A virus = test: Anti-viral activity against Influenza A virus H7N1 pseudotype infected in human A549 cells assessed as inhibition of viral entry incubated for 48 hrs by Neolite Reporter Gene Assay; type: functional, organism-based; details: H7N1, A549, 48 h
[3] = Metabolic stability in human liver microsomes assessed as compound remaining at 2 to 10 uM measured after 60 mins in absence of NADPH by LC-MS/MS analysis; type: ADME, Microsome; details: dose 2-10 µM, read-out: Stability
[4] = Cytotoxicity against human A549 cells incubated for 48 hrs by CellTiter-Glo Luminescent Cell Viability Assay; type: toxicity, cell-based
[5] = Metabolic stability in BALB/c mouse liver microsomes assessed as compound remaining at 2 to 10 uM measured after 60 mins in presence of NADPH by LC-MS/MS analysis; type: ADME, Microsome; details: dose 2-10 µM, read-out: Stability
[6] = Metabolic stability in human plasma at 2 uM measured after 60 mins by LC-MS/MS analysis; type: ADME, cell-free; details: 1 h
[7] = Metabolic stability in mouse plasma at 2 uM measured after 60 mins by LC-MS/MS analysis; type: ADME, cell-free; details: 1 h

COCOc1ccc(-c2nc3ncc(Cl)cn3c2NC2CCCCC2)c(F)c1
remaining at 1 h, up to 10 µM [1]: 2.6% | remaining at 1 h, up to 10 µM [2]: 102% | EC50 (Influenza A virus): 3.04 µM | remaining at 1 h, up to 10 µM [3]: 106% | CC50 at 48 h [4]: 50 µM | remaining at 1 h, up to 10 µM [5]: 14.2%

COCOc1ccc(-c2nc3ncccn3c2NC2CCCCC2)c(F)c1
remaining at 1 h, up to 10 µM [1]: 62.3% | Stability [6]: Stable | remaining at 1 h, up to 10 µM [2]: 107% | Stability [7]: Stable | EC50 (Influenza A virus): 0.08 µM | remaining at 1 h, up to 10 µM [3]: 103% | CC50 at 48 h [4]: > 100 µM | remaining at 1 h, up to 10 µM [5]: 9.2%

Cc1cc(C)n2c(NC34CC5CC(C)(CC(C)(C5)C3)C4)c(-c3ccccc3)nc2n1
EC50 (Influenza A virus): 13 µM | CC50 at 48 h [4]: 32 µM

Cc1cc(C)n2c(NC3CCCCC3)c(-c3ccc(F)c(N4CCOCC4)c3)nc2n1
EC50 (Influenza A virus): 4.57 µM | CC50 at 48 h [4]: > 25 µM

Fc1ccc(-c2nc3ncc(Cl)cn3c2NC2CCCC2)cc1F
EC50 (Influenza A virus): 8.3 µM | CC50 at 48 h [4]: 25 µM

Cc1cc(C)n2c(NC3CCCCC3)c(-c3nccs3)nc2n1
remaining at 1 h, up to 10 µM [1]: 19.8% | Stability [6]: Stable | remaining at 1 h, up to 10 µM [2]: 99.9% | Stability [7]: Stable | EC50 (Influenza A virus): 0.49 µM | remaining at 1 h, up to 10 µM [3]: 101% | CC50 at 48 h [4]: > 25 µM | remaining at 1 h, up to 10 µM [5]: 29.4%

CC(C)Oc1ccc(-c2nc3ncccn3c2NC2CCCCC2)cc1
EC50 (Influenza A virus): 1.45 µM | CC50 at 48 h [4]: > 100 µM

COCOc1ccc(-c2nc3ncc(Br)cn3c2NC2CCCCCC2)cc1
EC50 (Influenza A virus): 1.31 µM | CC50 at 48 h [4]: > 100 µM

COCOc1ccc(-c2nc3ncccn3c2NC2CCCCC2)cc1
remaining at 1 h, up to 10 µM [1]: 63.7% | Stability [6]: Stable | remaining at 1 h, up to 10 µM [2]: 109% | Stability [7]: Stable | EC50 (Influenza A virus): 0.09 µM | remaining at 1 h, up to 10 µM [3]: 105% | CC50 at 48 h [4]: > 100 µM | remaining at 1 h, up to 10 µM [5]: 2.2%

Fc1ccc(-c2nc3ncccn3c2NC2CCCCC2)c(F)c1
remaining at 1 h, up to 10 µM [1]: 33.4% | Stability [6]: Stable | remaining at 1 h, up to 10 µM [2]: 108% | Stability [7]: Stable | EC50 (Influenza A virus): 0.09 µM | remaining at 1 h, up to 10 µM [3]: 104% | CC50 at 48 h [4]: 72 µM | remaining at 1 h, up to 10 µM [5]: 22.8%

COCOc1cccc(-c2nc3ncc(Cl)cn3c2NC2CCCCC2)c1F
EC50 (Influenza A virus): 3.04 µM | CC50 at 48 h [4]: 51 µM

COCOc1cc(F)c(-c2nc3ncc(Cl)cn3c2NC2CCCCC2)c(OC)c1
EC50 (Influenza A virus): 6.65 µM | CC50 at 48 h [4]: 48 µM

COCOc1ccc(-c2nc3ncc(Cl)cn3c2NC2CCCCCC2)cc1
remaining at 1 h, up to 10 µM [1]: 13.8% | Stability [6]: Stable | remaining at 1 h, up to 10 µM [2]: 111% | Stability [7]: Stable | EC50 (Influenza A virus): 0.74 µM | remaining at 1 h, up to 10 µM [3]: 111% | CC50 at 48 h [4]: > 100 µM | remaining at 1 h, up to 10 µM [5]: 2.7%

Cc1cc(C)n2c(NC3CCCCC3)c(-c3ccncc3)nc2n1
EC50 (Influenza A virus): 0.89 µM | CC50 at 48 h [4]: > 25 µM

CN1CCN(c2ccc(-c3nc4ncc(Cl)cn4c3NC3CCCCC3)cc2F)CC1
EC50 (Influenza A virus): 1.49 µM | CC50 at 48 h [4]: 31 µM

Fc1ccc(-c2nc3ncc(Cl)cn3c2NC2CCCCC2)cc1F
Stability [6]: Stable | Stability [7]: Stable | EC50 (Influenza A virus): 0.26 µM | CC50 at 48 h [4]: > 100 µM

COc1ccc(-c2nc3sccn3c2NC2CCCCC2)cc1
EC50 (Influenza A virus): 3.02 µM | CC50 at 48 h [4]: 63.1 µM

Cc1cc(C)n2c(NC3CCCCC3)c(-c3ccc(Cl)s3)nc2n1
EC50 (Influenza A virus): 2.26 µM | CC50 at 48 h [4]: 14.8 µM

COCCOCOc1ccc(-c2nc3ncc(Cl)cn3c2NC2CCCCC2)cc1
EC50 (Influenza A virus): 0.86 µM | CC50 at 48 h [4]: > 100 µM

COc1cc(OC)cc(-c2nc3ncccn3c2NC2CCCCC2)c1
EC50 (Influenza A virus): 1.89 µM | CC50 at 48 h [4]: 47 µM

c1ccc(-c2nc3ncccn3c2NC2CCCC2)cc1
EC50 (Influenza A virus): 0.35 µM | CC50 at 48 h [4]: > 100 µM

COCOc1ccc(-c2nc3ncccn3c2NC2CCCCCC2)cc1
EC50 (Influenza A virus): 0.16 µM | CC50 at 48 h [4]: 52 µM

Fc1cc(-c2nc3ncc(Cl)cn3c2NC2CCCCC2)ccc1N1CCOCC1
EC50 (Influenza A virus): 1.61 µM | CC50 at 48 h [4]: > 100 µM

Cc1ccc(Cl)c(-c2nc3ncccn3c2NC2CCCCC2)c1F
EC50 (Influenza A virus): 1.26 µM | CC50 at 48 h [4]: 27 µM
